# Tests used:
# Aβ1-40 = assay: Measurement of Aβ1-40 in culture medium of 7W WT APP751 CHO cells by ELISA; type: cell-based, Chinese hamster; conditions: for activity at 5 µM: Cricetulus griseus, Table 1, 5 μM test compound, CHO cells stably transfected with human APP751, culture medium, ELISA, control DMSO, 0 = no detectable amount; for Aβ1-40 (% of control): CHO cells that overexpress APP751, zero = below the detection limit of the assay
# Aβ1-42 = assay: Measurement of Aβ1-42 in culture medium of 7W WT APP751 CHO cells by ELISA; type: cell-based, Chinese hamster; conditions: for activity at 5 µM: Cricetulus griseus, Table 1, 5 μM test compound, CHO cells stably transfected with human APP751, culture medium, ELISA, control DMSO, 0 = no detectable amount, read-out: Aβ1-42 (% of control); for Aβ1-42 (% of control): CHO cells that overexpress APP751, zero = below the detection limit of the assay
# 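Note: 5 µM test compound but RI-coded compounds at 10 µM for 24 hours.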
Structure (SMILES),activity at 5 µM (Aβ1-40),activity at 5 µM (Aβ1-42),Aβ1-40 (% of control) (Aβ1-40),Aβ1-42 (% of control) (Aβ1-42)
"CCOCCOC(=O)C1=C(C)NC2=C(C(=O)CCC2)C1c1ccc(CC)cc1 (stereo not shown) [ST013344, 2-ethoxyethyl 4-(4-ethylphenyl)-2-methyl-5-oxo-1,4,6,7,8-pentahydroquinoline-3-carboxylate]",54.4%,86.6%,–,–
"CCOc1cc(/C=c2\sc3n(c2=O)C(N)=C(C#N)C(c2ccc(O)c(OCC)c2)C=3C#N)ccc1O (stereo not shown) [ST025033, 5-amino-7-(3-ethoxy-4-hydroxyphenyl)-2-[(3-ethoxy-4-hydroxyphenyl)methylene]-3-oxo-4,7-dihydro-1,3-thiazolidino[3,2-a]pyridine-6,8-dicarbonitrile]",–,–,53.66 % of control,57.6 % of control
"CCCOc1ccc(C2C(C(=O)OC(C)CC)=C(C)NC3=C2C(=O)CC(c2ccc(Cl)cc2)C3)cc1 (stereo not shown) [ST017093, methylpropyl 7-(4-chlorophenyl)-2-methyl-5-oxo-4-(4-propoxyphenyl)-1,4,6,7,8-pentahydroquinoline-3-carboxylate]",46.8%,95%,–,–
"COC(=O)C1=C(C)NC2=C(C(=O)CC(c3ccc(Cl)cc3)C2)C1c1ccc(C)cc1 (stereo not shown) [ST015214, methyl 7-(4-chlorophenyl)-2-methyl-4-(4-methylphenyl)-5-oxo-1,4,6,7,8-pentahydroquinoline-3-carboxylate]",60.7%,66.7%,–,–
CCc1cccc(NC(=O)CSC2=C(C#N)C(c3cc4ccccc4s3)C(C(=O)Nc3ccccc3)=C(C)N2)c1 (stereo not shown) [RI_87],–,–,77.1 % of control,49 % of control
"COCCOC(=O)C1=C(C)NC2=C(C(=O)CC(c3ccc(OC)cc3)C2)C1c1cccc(OC)c1 (stereo not shown) [ST017097, 2-methoxyethyl 4-(3-methoxyphenyl)-7-(4-methoxyphenyl)-2-methyl-5-oxo-1,4,6,7,8-pentahydroquinoline-3-carboxylate]",68.2%,80.9%,–,–
"CC1=C(C(=O)OCCOc2ccccc2)C(c2cccc(Oc3ccccc3)c2)C2=C(CC(C)(C)CC2=O)N1 (stereo not shown) [ST015055, 2-phenoxyethyl 2,7,7-trimethyl-5-oxo-4-(3-phenoxyphenyl)-1,4,6,7,8-pentahydroquinoline-3-carboxylate]",13.6%,78.2%,–,–
CC1=C(C(=O)Nc2ccccc2)C(Cc2ccccc2)C(C#N)=C(SCC(=O)Nc2cccc(C)c2)N1 (stereo not shown) [RI_34],–,–,31.4 % of control,26.1 % of control
CCc1ccc(NC(=O)CSC2=C(C#N)C(c3cccs3)C(C(=O)Nc3ccccc3)=C(C)N2)cc1 (stereo not shown) [RI_61],–,–,68.5 % of control,51.4 % of control
"CC1=C(C(=O)OCCc2ccccc2)C(c2ccccc2Br)C2=C(CC(c3ccccc3)CC2=O)N1 (stereo not shown) [ST015234, 2-phenylethyl 4-(2-bromophenyl)-2-methyl-5-oxo-7-phenyl-1,4,6,7,8-pentahydroquinoline-3-carboxylate]",51.8%,54.8%,–,–
"CCCCOC(=O)C1=C(C)NC2=C(C(=O)CCC2)C1c1ccccc1OCCCC (stereo not shown) [ST013330, butyl 4-(2-butoxyphenyl)-2-methyl-5-oxo-1,4,6,7,8-pentahydroquinoline-3-carboxylate]",38%,86.5%,–,–
"COC(=O)C1=CN(CC2CCCO2)C=C(C(=O)OC)C1c1ccc(Cl)c(Cl)c1 (stereo not shown) [ST045237, methyl 4-(3,4-dichlorophenyl)-5-(methoxycarbonyl)-1-(oxolan-2-ylmethyl)-1,4-dihydropyridine-3-carboxylate]",–,–,60.46 % of control,50.77 % of control
CCc1cccc(NC(=O)CSC2=C(C#N)C(c3csc4ccccc34)C(C(=O)Nc3ccccc3)=C(C)N2)c1 (stereo not shown) [RI_92],–,–,60.7 % of control,47.3 % of control
"CCSCCOC(=O)C1=C(C)NC2=C(C(=O)CC(c3cccs3)C2)C1c1cccc(Cl)c1 (stereo not shown) [ST051570, 2-ethylthioethyl 4-(3-chlorophenyl)-2-methyl-5-oxo-7-(2-thienyl)-1,4,6,7,8-pentahydroquinoline-3-carboxylate]",31.7%,93.8%,–,–
